Measurements from patent EP4603105A1, “PHARMACEUTICAL COMPOSITION CONTAINING CYCLIC COMPOUND HAVING SELECTIVE KRAS INHIBITORY EFFECT AGAINST HRAS AND NRAS” (CHUGAI SEIYAKU KABUSHIKI KAISHA, priority 2022, dated 2024).
Where two headings read alike, the source gives them in different places.

Tests used:
[1] = target: GDP-bound KRAS wild-type protein (Homo sapiens, UniProt P01116); experiment: Binding to KRAS by surface plasmon resonance (SPR), dissociation constant KD
Outline: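 Read-out is KD from 1:1 fitting of single-cycle kinetics sensorgrams, blank-cycle and reference-surface corrected. Proteins were GDP-loaded, biotinylated Avi-fusions freshly captured each cycle at roughly 100–300 RU. Runs were at 30°C in HBS pH 7.4 with MgCl2, GDP and 4% DMSO.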

[2] = target: GDP-bound NRAS wild-type protein (Homo sapiens, UniProt P01111); experiment: Binding to NRAS by surface plasmon resonance (SPR), KD and KD ratio to KRAS
Outline: (§1)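 GDP-loaded biotinylated Avi-tag RAS proteins (E. coli-expressed) captured on a Biotin CAPture chip at ~100–300 RU; single-cycle kinetics at 30°C, 100 µL/min, 75 s injections of rising compound concentrations. HBS pH 7.4 running buffer with 1 mM DTT, 10 mM MgCl2, 10 µM GDP, 4% DMSO. KD from 1:1 binding fit.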

HRAS wild-type protein = HRAS wild-type protein (Homo sapiens, UniProt P01112); experiment: Binding to HRAS by surface plasmon resonance (SPR), KD and KD ratio to KRAS
Outline: as §1

[3] = tested on: human lung cancer strain NCI-H441; experiment: NCI-H441 cell proliferation inhibitory activity (CellTiter-Glo, 4 days); assay type: cell-based; settings: read-out: NCl-H441 IC50
Outline: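 Readout: […] after the ATP-based reagent. Compound: serial dilutions in dimethyl sulfoxide.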

[4] = ratio of KD for GDP-bound NRAS wild-type protein to KD for KRAS
[5] = ratio of KD for HRAS wild-type protein to KD for KRAS
[6] = Single Cycle Kinetics, 1:1 binding model
[7] = ratio of KD with respect to GDP-bound NRAS wild-type protein to KD with respect to KRAS
[8] = ratio of KD with respect to HRAS wild-type protein to KD with respect to KRAS
[9] = 50% proliferation inhibitory concentration, four days

HRAS wild-type protein, sequence (P01112 whole entry): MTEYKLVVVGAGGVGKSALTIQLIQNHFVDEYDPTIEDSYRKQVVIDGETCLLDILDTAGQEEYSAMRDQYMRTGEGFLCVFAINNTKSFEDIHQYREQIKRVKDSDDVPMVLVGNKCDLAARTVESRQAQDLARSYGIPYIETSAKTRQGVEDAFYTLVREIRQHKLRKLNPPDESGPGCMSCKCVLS
GDP-bound NRAS wild-type protein, sequence (P01111 whole entry): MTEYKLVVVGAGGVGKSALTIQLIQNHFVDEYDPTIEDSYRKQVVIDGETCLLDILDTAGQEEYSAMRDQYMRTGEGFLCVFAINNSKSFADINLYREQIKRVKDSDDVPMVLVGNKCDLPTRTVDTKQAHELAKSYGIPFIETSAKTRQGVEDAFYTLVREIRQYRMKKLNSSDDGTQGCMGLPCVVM
GDP-bound KRAS wild-type protein, sequence (P01116 1-188 isoform P01116-2): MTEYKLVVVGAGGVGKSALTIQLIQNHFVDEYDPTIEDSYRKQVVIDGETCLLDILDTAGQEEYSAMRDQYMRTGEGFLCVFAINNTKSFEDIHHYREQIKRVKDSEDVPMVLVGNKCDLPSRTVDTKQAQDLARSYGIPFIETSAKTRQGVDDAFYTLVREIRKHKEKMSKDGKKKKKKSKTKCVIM

Row | SMILES | Kd ([1]; Single Cycle Kinetics) | IC50 ([3]; NCI-H441 cells, 4 days) | Kd ([1]; 1:1 binding model) | Kd [1, 6] | IC50 [3, 9] | NRAS /KRAS [2, 4] | HRAS /KRAS (HRAS wild-type protein; [5]) | NRAS /KRAS [2, 7] | HRAS /KRAS (HRAS wild-type protein; [8])
1 | CCO[C@@H]1C[C@H]2C(=O)NC3(CC(C)(C)C3)C(=O)N(C)[C@@H](C3CCCC3)C(=O)N(C)[C@H](C(=O)N(C)CC)CC(=O)N(C)[C@@H]([C@H](C)OC)C(=O)N[C@@H]([C@@H](C)CC)C(=O)N3CCC[C@H]3C(=O)N(C)[C@H]3C/C=C\CCN(C3=O)[C@@H](Cc3ccc(C(F)(F)F)cc3)C(=O)N(C)CC(=O)N[C@@H](CCc3cc(F)c(C(F)(F)F)c(F)c3)C(=O)N2C1 [PP3223] | 1.1 nM | 49.6 nM |  |  |  | A (a compound having 10 or more and less than 20 is denoted as A) | A (a compound having 10 or more and less than 20 is denoted as A) |  | 
2 | C#CCN1CC(=O)N(C)[C@H]2C/C=C\CCN(C2=O)[C@@H](Cc2ccc(C)cc2)C(=O)N(C)CC(=O)N[C@@H](CCc2ccc(C(F)(F)F)c(OC)c2)C(=O)N2C[C@H](OCC)C[C@H]2C(=O)NC2(CC(C)(C)C2)C(=O)N(C)[C@@H](C2CCCC2)C(=O)N(C)[C@H](C(=O)N(C)C)CC(=O)N(C)[C@@H](CCC)C(=O)N[C@@H](CC(C)C)C1=O [PP2514] |  | 86.8 nM | 2.4 nM |  |  | A (a compound having 10 or more and less than 20 is denoted as A) | B (a compound having 3 or more and less than 10 is denoted as B) |  | 
3 | CCCOC[C@H]1C(=O)N[C@@H]([C@@H](C)CC)C(=O)N(C)CC(=O)N(C)[C@H]2C/C=C\CCN(C2=O)[C@@H](Cc2ccc(C)cc2)C(=O)N(C)CC(=O)N[C@@H](CCc2cc(F)c(C(F)(F)F)c(F)c2)C(=O)N2C[C@@H](C)C[C@H]2C(=O)NC2(CC(C)(C)C2)C(=O)N(C)[C@@H](C2CCCC2)C(=O)N(C)[C@H](C(=O)N(C)CC)CC(=O)N1C [PP2471] |  | 15.3 nM | 0.16 nM |  |  | A (a compound having 10 or more and less than 20 is denoted as A) | A (a compound having 10 or more and less than 20 is denoted as A) |  | 
4 | CCC[C@H]1C(=O)N[C@@H](CC(C)C)C(=O)N2C[C@@H](OC)C[C@H]2C(=O)N(C)[C@H]2C/C=C\CCN(C2=O)[C@@H](Cc2ccc(C)cc2)C(=O)N(C)CC(=O)N[C@@H](CCc2cc(F)c(C(F)(F)F)c(F)c2)C(=O)N2C[C@H](OCC)C[C@H]2C(=O)NC2(CC(C)(C)C2)C(=O)N(C)[C@@H](C2CCCC2)C(=O)N(C)[C@H](C(=O)N(C)C)CC(=O)N1C [PP2553] |  | 121 nM | 3.4 nM |  |  | A (a compound having 10 or more and less than 20 is denoted as A) | B (a compound having 3 or more and less than 10 is denoted as B) |  | 
5 | CCC(CC)[C@H]1C(=O)N(C)[C@H](C(=O)N(C)C)CC(=O)N(C)[C@@H](COC)C(=O)N[C@@H]([C@@H](C)CC)C(=O)N(C)CC(=O)N(C)[C@H]2C/C=C\CCN(C2=O)[C@@H](CC2CCC(F)(F)CC2)C(=O)N(C)CC(=O)N[C@@H](CCc2ccc(C(F)(F)F)c(OC)c2)C(=O)N2C[C@@H](C)C[C@H]2C(=O)NC2(CC(C)(C)C2)C(=O)N1C [PP2442] |  | 79.7 nM | 0.97 nM |  |  | A (a compound having 10 or more and less than 20 is denoted as A) | A (a compound having 10 or more and less than 20 is denoted as A) |  | 
6 | CCO[C@@H]1C[C@H]2C(=O)NC3(CCC3)C(=O)N(C)[C@@H](C3CCCC3)C(=O)N(C)[C@H](C(=O)N(C)C)CC(=O)N(C)[C@@H](CC3CC3)C(=O)N[C@@H]([C@@H](C)CC)C(=O)N(C)CC(=O)N(C)[C@H]3C/C=C\CCN(C3=O)[C@@H](Cc3ccc(C)cc3)C(=O)N(C)CC(=O)N[C@@H](CCc3cc(F)c(Cl)c(F)c3)C(=O)N2C1 [PP1484] |  |  |  | 0.45 nM | 59.3 nM |  |  | A (a compound having 10 or more and less than 20 is denoted as A) | A (a compound having 10 or more and less than 20 is denoted as A)
7 | CCOC[C@H]1C(=O)N[C@@H]([C@@H](C)CC)C(=O)N(C2CC2)CC(=O)N(C)[C@@H]2C/C=C\CCN(C2=O)[C@@H](Cc2ccc(C)cc2)C(=O)N(C)CC(=O)N[C@@H](CCc2ccc(C(F)(F)F)c(OC)c2)C(=O)N2C[C@H](OCC)C[C@@H]2C(=O)NC2(CC(C)(C)C2)C(=O)N(C)[C@H](CC2CCC2)C(=O)N(C)[C@H](C(=O)N(C)C)CC(=O)N1C [PP2760] |  | 144 nM | 4.8 nM |  |  | A (a compound having 10 or more and less than 20 is denoted as A) | B (a compound having 3 or more and less than 10 is denoted as B) |  | 

Continued, in another order:

Row | Kd ([1]; Single Cycle Kinetics) | IC50 ([3]; NCI-H441 cells, 4 days) | Kd ([1]; 1:1 binding model) | Kd [1, 6] | IC50 [3, 9] | SMILES | NRAS /KRAS [2, 4] | HRAS /KRAS (HRAS wild-type protein; [5]) | NRAS /KRAS [2, 7] | HRAS /KRAS (HRAS wild-type protein; [8])
8 | 0.22 nM | 8.1 nM |  |  |  | CCCC[C@H]1C(=O)N[C@@H]([C@@H](C)CC)C(=O)N(C)CC(=O)N(C)[C@H]2C/C=C\CCN(C2=O)[C@@H](Cc2ccc(C)cc2)C(=O)N(C)CC(=O)N[C@@H](CCc2ccc(C(F)(F)F)c(OC)c2)C(=O)N2C[C@H](OCC)C[C@H]2C(=O)OC2(CCC2)C(=O)N(C)[C@@H](C2CCCC2)C(=O)N(C)[C@H](C(=O)N(C)C)CC(=O)N1C [PP3385] | A (a compound having 10 or more and less than 20 is denoted as A) | B (a compound having 3 or more and less than 10 is denoted as B) |  | 
9 | 0.082 nM | 4.5 nM |  |  |  | C#CC[C@H]1C(=O)N[C@@H]([C@@H](C)CC)C(=O)N2CCC[C@H]2C(=O)N(C)[C@H]2C/C=C\CCN(C2=O)[C@@H](Cc2ccc(C(F)(F)F)cc2)C(=O)N(C)CC(=O)N[C@@H](CCc2ccc(C(F)(F)F)c(OC)c2)C(=O)N2C[C@H](OCC)C[C@H]2C(=O)N(C)C2(CCC2)C(=O)N(C)[C@@H](C2CCCC2)C(=O)N(C)[C@H](C(=O)N(C)C)CC(=O)N1C [PP3252] | A (a compound having 10 or more and less than 20 is denoted as A) | A (a compound having 10 or more and less than 20 is denoted as A) |  | 
10 |  | 7.6 nM | 0.02 nM |  |  | CCOC[C@H]1C(=O)N[C@@H]([C@@H](C)CC)C(=O)N(C)CC(=O)N(C)[C@H]2C/C=C\CCN(C2=O)[C@@H](Cc2ccc(C(F)(F)F)cc2)C(=O)N(C)CC(=O)N[C@@H](CCc2ccc(C(F)(F)F)c(OC)c2)C(=O)N2C[C@@H](C)C[C@H]2C(=O)N(C)C2(CCC2)C(=O)N(C)[C@@H](C2CCCC2)C(=O)N(C)[C@H](C(=O)N(C)C)CC(=O)N1C [PP2359] | A (a compound having 10 or more and less than 20 is denoted as A) | B (a compound having 3 or more and less than 10 is denoted as B) |  | 
11 |  |  |  | 0.23 nM | 18.9 nM | CCO[C@@H]1C[C@H]2C(=O)NC3(CCC3)C(=O)N(C)[C@@H](C3CCCC3)C(=O)N(C)[C@H](C(=O)N(C)C)CC(=O)N(C)[C@@H](CC(C)C)C(=O)N[C@@H]([C@@H](C)CC)C(=O)N(C)CC(=O)N(C)[C@H]3C/C=C\CCN(C3=O)[C@@H](Cc3ccc(C(F)(F)F)cc3)C(=O)N(C)CC(=O)N[C@@H](CCc3cc(F)c(Cl)c(F)c3)C(=O)N2C1 [PP1263] |  |  | A (a compound having 10 or more and less than 20 is denoted as A) | A (a compound having 10 or more and less than 20 is denoted as A)
12 | 0.33 nM | 5.4 nM |  |  |  | C#CC[C@H]1C(=O)N[C@@H]([C@@H](C)CC)C(=O)N2CCC[C@H]2C(=O)N(C)[C@H]2C/C=C\CCN(C2=O)[C@@H](Cc2ccc(C(F)(F)F)cc2)C(=O)N(C)CC(=O)N[C@@H](CCc2ccc(C(F)(F)F)c(OC)c2)C(=O)N2C[C@H](OCC)C[C@H]2C(=O)OC2(CCC2)C(=O)N(C)[C@@H](C2CCCC2)C(=O)N(C)[C@H](C(=O)N(C)C)CC(=O)N1C [PP3371] | A (a compound having 10 or more and less than 20 is denoted as A) | A (a compound having 10 or more and less than 20 is denoted as A) |  | 
